# Data taken from patent US9169254B2, “Spiroimidazolone derivative” (Chugai Seiyaku Kabushiki Kaisha, priority 2009, dated 2015).
# Target: T1, human PTH1 receptor (Homo sapiens, UniProt Q03431)
# T1 sequence (Q03431 27-593): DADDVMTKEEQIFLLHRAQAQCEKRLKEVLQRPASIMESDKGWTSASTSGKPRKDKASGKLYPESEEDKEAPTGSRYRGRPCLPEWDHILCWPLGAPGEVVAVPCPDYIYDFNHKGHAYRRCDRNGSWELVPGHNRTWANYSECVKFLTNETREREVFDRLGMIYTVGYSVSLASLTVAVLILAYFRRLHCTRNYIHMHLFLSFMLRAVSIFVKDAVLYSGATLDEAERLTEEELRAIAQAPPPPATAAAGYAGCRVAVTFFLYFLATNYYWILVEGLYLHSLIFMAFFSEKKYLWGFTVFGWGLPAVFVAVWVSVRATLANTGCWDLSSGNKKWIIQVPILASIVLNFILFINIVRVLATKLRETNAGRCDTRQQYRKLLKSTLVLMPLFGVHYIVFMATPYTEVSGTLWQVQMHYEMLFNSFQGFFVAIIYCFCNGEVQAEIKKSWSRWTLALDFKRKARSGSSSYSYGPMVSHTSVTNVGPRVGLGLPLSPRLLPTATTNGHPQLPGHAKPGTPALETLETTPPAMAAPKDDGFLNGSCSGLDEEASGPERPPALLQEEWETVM
# Assay: In vitro cAMP signal activity in HKRK-B7 cells (LLC-PK1 cells overexpressing the human PTH1 receptor)
# Assay type: cell-based
# Details: HKRK-B7 cells; compound at 1×10^−3 M; cAMP produced as percentage of that produced by hPTH(1-34) at 100 nM
row,Compound,cAMP production activity (%)
1,"O=C1NC(C2CCC(C(F)(F)F)CC2)=NC12CCN(S(=O)(=O)CCc1cccc3c1ccn3C[C@H](O)CO)CC2 (stereo partly drawn) [Compound 322, 8-{2-[1-((S)-2,3-dihydroxy-propyl)-1H-indol-4-yl]-ethanesulfonyl}-2-(4-trifluoromethyl-cyclohexyl)-1,3,8-triaza-spiro[4.5]dec-1-en-4-one]",75%
2,"O=C1NC(C2CCCCC2)=NC12CCN(S(=O)(=O)CCc1ccccc1C(F)(F)F)CC2 [Compound 323, 2-Cyclohexyl-8-[2-(2-trifluoromethyl-phenyl)-ethanesulfonyl]-1,3,8-triaza-spiro[4.5]dec-1-en-4-one]",53%
3,"CN(C)C(=O)c1ccc(CCCS(=O)(=O)N2CCC3(CC2)N=C(C2CCCCC2)NC3=O)cc1 [Compound 324, 4-[3-(2-cyclohexyl-4-oxo-1,3,8-triaza-spiro[4.5]dec-1-ene-8-sulfonyl)-propyl]-N,N-dimethyl-benzamide]",30%
4,"Cc1cc(OC[C@H](O)CO)ccc1CCS(=O)(=O)N1CCC2(CC1)N=C(c1cccc(OC(F)(F)F)c1)NC2=O [Compound 325, 8-{2-[4-((R)-2,3-Dihydroxy-propoxy)-2-methyl-phenyl]-ethanesulfonyl}-2-(3-trifluoromethoxy-phenyl)-1,3,8-triaza-spiro[4.5]dec-1-en-4-one]",61%
5,"CC(=O)N(CCO)c1ccc(C)c(CCS(=O)(=O)N2CCC3(CC2)N=C(c2cccc(OC(F)(F)F)c2)NC3=O)c1 [Compound 326, N-(2-Hydroxy-ethyl)-N-(4-methyl-3-{2-[4-oxo-2-(3-trifluoromethoxy-phenyl)-1,3,8-triaza-spiro[4.5]dec-1-ene-8-sulfonyl]-ethyl}-phenyl)-acetamide]",76%
6,"CC(=O)N(CCO)c1cccc(CCS(=O)(=O)N2CCC3(CC2)N=C(c2cccc(OC(F)(F)F)c2)NC3=O)c1C [Compound 327, N-(2-Hydroxy-ethyl)-N-(2-methyl-3-{2-[4-oxo-2-(3-trifluoromethoxy-phenyl)-1,3,8-triaza-spiro[4.5]dec-1-ene-8-sulfonyl]-ethyl}-phenyl)-acetamide]",84%
7,"Nc1cccc(CCCS(=O)(=O)N2CCC3(CC2)N=C(C2CCCCC2)NC3=O)c1 [Compound 328, 8-[3-(3-Amino-phenyl)-propane-1-sulfonyl]-2-cyclohexyl-1,3,8-triaza-spiro[4.5]dec-1-en-4-one]",41%
8,"CN(C)C(=O)c1ccc(-c2ccc(S(=O)(=O)N3CCC4(CC3)N=C(c3cccc(C(F)(F)F)c3)NC4=O)s2)cc1 [Compound 329, N,N-Dimethyl-4-{5-[4-oxo-2-(3-trifluoromethyl-phenyl)-1,3,8-triaza-spiro[4.5]dec-1-ene-8-sulfonyl]-thiophen-2-yl}-benzamide]",33%
9,"CN(C)C(=O)c1cccc(-c2ccc(S(=O)(=O)N3CCC4(CC3)N=C(c3cccc(C(F)(F)F)c3)NC4=O)s2)c1 [Compound 330, N,N-dimethyl-3-{5-[4-oxo-2-(3-trifluoromethyl-phenyl)-1,3,8-triaza-spiro[4.5]dec-1-ene-8-sulfonyl]-thiophen-2-yl}-benzamide]",23%
10,"Cc1cc(C(=O)N(C)C)ccc1-c1ccc(S(=O)(=O)N2CCC3(CC2)N=C(c2cccc(C(F)(F)F)c2)NC3=O)s1 [Compound 331, 3,N,N-trimethyl-4-{5-[4-oxo-2-(3-trifluoromethyl-phenyl)-1,3,8-triaza-spiro[4.5]dec-1-ene-8-sulfonyl]-thiophen-2-yl}-benzamide]",55%
11,"CC(=O)Nc1ccc(-c2ccc(S(=O)(=O)N3CCC4(CC3)N=C(C3CCCCC3)NC4=O)s2)c(C)c1 [Compound 332, N-{4-[5-(2-cyclohexyl-4-oxo-1,3,8-triaza-spiro[4.5]dec-1-ene-8-sulfonyl)-thiophen-2-yl]-3-methyl-phenyl}-acetamide]",90%
12,"Cc1cc(C(=O)N(C)C)ccc1-c1ccc(S(=O)(=O)N2CCC3(CC2)N=C(c2ccc(F)c(C(F)(F)F)c2)NC3=O)s1 [Compound 333, 4-{5-[2-(4-fluoro-3-trifluoromethyl-phenyl)-4-oxo-1,3,8-triaza-spiro[4.5]dec-1-ene-8-sulfonyl]-thiophen-2-yl}-3,N,N-trimethyl-benzamide]",87%
13,"Cc1ccc(C(=O)N(C)C)cc1-c1ccc(S(=O)(=O)N2CCC3(CC2)N=C(c2ccc(F)c(C(F)(F)F)c2)NC3=O)s1 [Compound 334, 3-{5-[2-(4-fluoro-3-trifluoromethyl-phenyl)-4-oxo-1,3,8-triaza-spiro[4.5]dec-1-ene-8-sulfonyl]-thiophen-2-yl}-4,N,N-trimethyl-benzamide]",34%
14,"Cc1cc(C(=O)N(C)C)ccc1-c1cccc(S(=O)(=O)N2CCC3(CC2)N=C(c2cccc(OC(F)(F)F)c2)NC3=O)c1 [Compound 335, 2-methyl-3′-[4-oxo-2-(3-trifluoromethoxy-phenyl)-1,3,8-triaza-spiro[4.5]dec-1-ene-8-sulfonyl]-biphenyl-4-carboxylic acid dimethylamide]",28%
15,"Cc1cc(C(=O)N(C)C)ccc1-c1ccc(S(=O)(=O)N2CCC3(CC2)N=C(c2cccc(OC(F)(F)F)c2)NC3=O)cc1 [Compound 336, 2-methyl-4′-[4-oxo-2-(3-trifluoromethoxy-phenyl)-1,3,8-triaza-spiro[4.5]dec-1-ene-8-sulfonyl]-biphenyl-4-carboxylic acid dimethylamide]",28%
16,"Cc1cc(C(=O)N(C)C)ccc1-c1cccc(S(=O)(=O)N2CCC3(CC2)N=C(c2cccc(OC(F)(F)F)c2)NC3=O)n1 [Compound 337, 3,N,N-trimethyl-4-{6-[4-oxo-2-(3-trifluoromethoxy-phenyl)-1,3,8-triaza-spiro[4.5]dec-1-ene-8-sulfonyl]-pyridin-2-yl}-benzamide]",17%
17,"Cc1noc(C)c1-c1ccccc1CCS(=O)(=O)N1CCC2(CC1)N=C(C1CCCCC1)NC2=O [Compound 338, 2-Cyclohexyl-8-{2-[2-(3,5-dimethyl-isoxazol-4-yl)-phenyl]-ethanesulfonyl}-1,3,8-triaza-spiro[4.5]dec-1-en-4-one]",60%
18,"COc1ccc(-c2ccccc2CCS(=O)(=O)N2CCC3(CC2)N=C(C2CCCCC2)NC3=O)cn1 [Compound 339, 2-cyclohexyl-8-{2-[2-(6-methoxy-pyridin-3-yl)-phenyl]-ethanesulfonyl}-1,3,8-triaza-spiro[4.5]dec-1-en-4-one]",66%
19,"Cn1cc(-c2ccccc2CCS(=O)(=O)N2CCC3(CC2)N=C(C2CCCCC2)NC3=O)cn1 [Compound 340, 2-cyclohexyl-8-{2-[2-(1-methyl-1H-pyrazol-4-yl)-phenyl]-ethanesulfonyl}-1,3,8-triaza-spiro[4.5]dec-1-en-4-one]",67%
20,"Cc1cc(OCCC(O)CO)ccc1-c1ccc(S(=O)(=O)N2CCC3(CC2)N=C(c2ccc(F)c(C(F)(F)F)c2)NC3=O)s1 (stereo not drawn) [Compound 341, 8-{5-[4-(3,4-Dihydroxy-butoxy)-2-methyl-phenyl]-thiophene-2-sulfonyl}-2-(4-fluoro-3-trifluoromethyl-phenyl)-1,3,8-triaza-spiro[4.5]dec-1-en-4-one]",62%
21,"CC(=O)N(CCO)c1ccc(-c2ccc(S(=O)(=O)N3CCC4(CC3)N=C(c3ccc(F)c(C(F)(F)F)c3)NC4=O)s2)c(C)c1 [Compound 342, N-(4-{5-[2-(4-Fluoro-3-trifluoromethyl-phenyl)-4-oxo-1,3,8-triaza-spiro[4.5]dec-1-ene-8-sulfonyl]-thiophen-2-yl}-3-methyl-phenyl)-N-(2-hydroxy-ethyl)-acetamide]",93%
22,"O=C1NC(C2CCCCC2)=NC12CCN(S(=O)(=O)/C=C/c1nccs1)CC2 [Compound 343, 2-Cyclohexyl-8-((E)-2-thiazol-2-yl-ethenesulfonyl)-1,3,8-triaza-spiro[4.5]dec-1-en-4-one]",13%
23,"O=C1NC(C2CCCCC2)=NC12CCN(S(=O)(=O)/C=C/C1CCCC1)CC2 [Compound 344, 2-cyclohexyl-8-((E)-2-cyclopentyl-ethenesulfonyl)-1,3,8-triaza-spiro[4.5]dec-1-en-4-one]",35%
24,"O=C1NC(C2CCCCC2)=NC12CCN(S(=O)(=O)CCc1nccs1)CC2 [Compound 345, 2-Cyclohexyl-8-(2-thiazol-2-yl-ethanesulfonyl)-1,3,8-triaza-spiro[4.5]dec-1-en-4-one]",21%
25,"COc1ccc(CCCS(=O)(=O)N2CCC3(CC2)N=C(C2CCCCC2)NC3=O)cc1 [Compound 346, 2-Cyclohexyl-8-[3-(4-methoxy-phenyl)-propane-1-sulfonyl]-1,3,8-triaza-spiro[4.5]dec-1-en-4-one]",28%
26,"O=C(NCc1ccccc1)c1ccccc1S(=O)(=O)N1CCC2(CC1)N=C(C1CCCCC1)NC2=O [Compound 347, N-Benzyl-2-(2-cyclohexyl-4-oxo-1,3,8-triaza-spiro[4.5]dec-1-ene-8-sulfonyl)-benzamide]",23%
27,"O=C(c1cccc(C2=NC3(CCN(S(=O)(=O)c4cccc(Cl)c4)CC3)C(=O)N2)c1)N1CCOCC1 [Compound 348, 8-(3-Chloro-benzenesulfonyl)-2-[3-(morpholine-4-carbonyl)-phenyl]-1,3,8-triaza-spiro[4.5]dec-1-en-4-one]",5.6%
